Data as given in PubChem BioAssay AID248 (DTP/NCI, 2004).
Where “and” joins values, the source holds several entries; their conditions need not be identical. Equal entries are not always repeated. Inconclusive results and toxic doses are left out. Rule as the data show it: active = T/C of 150% or more; inactive = T/C below 125%.

Tested on: L1210 leukemia ip in BDF1 mice, survival T/C
Assay: NCI In Vivo Anticancer Drug Screen. Data for tumor model L1210 Leukemia (intraperitoneal) in B6D2F1 (BDF1) mice
Conditions: endpoint: mean survival time, higher = longer survival
Method in brief: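 Tumor cells were implanted, animals were treated, and survival was followed. The result divides the treated measurement by the vehicle-control measurement.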

[1] = dose: 100.0 mg/kg/injection, schedule: Q04DX003 (ip), vehicle: saline
[2] = dose: 200.0 mg/kg/injection, schedule: Q04DX003 (ip), vehicle: saline
[3] = dose: 400.0 mg/kg/injection, schedule: Q04DX003 (ip), vehicle: saline
[4] = dose: 100.0 mg/kg/injection, schedule: Q04DX003 (ip), vehicle: Klucel (hydroxypropylcellulose) (HPC)
[5] = dose: 200.0 mg/kg/injection, schedule: Q04DX003 (ip), vehicle: Klucel (hydroxypropylcellulose) (HPC)
[6] = dose: 400.0 mg/kg/injection, schedule: Q04DX003 (ip), vehicle: Klucel (hydroxypropylcellulose) (HPC)
[7] = dose: 100.0 mg/kg/injection, schedule: Q01DX001 (ip), vehicle: saline
[8] = dose: 200.0 mg/kg/injection, schedule: Q01DX001 (ip), vehicle: saline
[9] = dose: 50.0 mg/kg/injection, schedule: Q04DX003 (ip), vehicle: Klucel (hydroxypropylcellulose) (HPC)
[10] = dose: 50.0 mg/kg/injection, schedule: Q01DX009 (ip), vehicle: Klucel (hydroxypropylcellulose) (HPC)
[11] = dose: 100.0 mg/kg/injection, schedule: Q01DX009 (ip), vehicle: Klucel (hydroxypropylcellulose) (HPC)
[12] = dose: 100.0 mg/kg/injection, schedule: Q01DX009 (ip), vehicle: saline with Tween-80
[13] = dose: 200.0 mg/kg/injection, schedule: Q01DX009 (ip), vehicle: Klucel (hydroxypropylcellulose) (HPC)
[14] = dose: 12.5 mg/kg/injection, schedule: Q04DX003 (ip), vehicle: saline with Tween-80
[15] = dose: 25.0 mg/kg/injection, schedule: Q04DX003 (ip), vehicle: saline with Tween-80
[16] = dose: 50.0 mg/kg/injection, schedule: Q04DX003 (ip), vehicle: saline with Tween-80
[17] = dose: 100.0 mg/kg/injection, schedule: Q04DX003 (ip), vehicle: saline with Tween-80
[18] = dose: 400.0 mg/kg/injection, schedule: Q01DX009 (ip), vehicle: Klucel (hydroxypropylcellulose) (HPC)
[19] = dose: 100.0 mg/kg/injection, schedule: Q04DX002 (ip), vehicle: Klucel (hydroxypropylcellulose) (HPC)

Measured: T/C

Cc1c(/C=N/N(CCO)CCO)[nH]c(=O)[nH]c1=O
inactive: dose: 100.0 mg/kg/injection, schedule: Q01DX001 (ip), vehicle: saline with Tween-80 103 % of control | dose: 200.0 mg/kg/injection, schedule: Q01DX001 (ip), vehicle: saline with Tween-80 103 % of control | dose: 400.0 mg/kg/injection, schedule: Q01DX001 (ip), vehicle: saline with Tween-80 98 % of control

COc1cccc2c1C(=O)c1c(OC)c(C(Br)Br)cc(OC)c1C2=O
inactive: dose: 12.5 mg/kg/injection, schedule: Q01DX009 (ip), vehicle: other 99 % of control | dose: 25.0 mg/kg/injection, schedule: Q01DX009 (ip), vehicle: other 89 % of control | dose: 50.0 mg/kg/injection, schedule: Q01DX009 (ip), vehicle: other 89 % of control | dose: 100.0 mg/kg/injection, schedule: Q01DX009 (ip), vehicle: other 89 % of control | dose: 200.0 mg/kg/injection, schedule: Q01DX009 (ip), vehicle: other 87 % of control

Nc1cc(Cl)ccc1[N+](=O)[O-]
inactive: [1] 103 % of control | [2] 95 % of control | [3] 96 % of control

CCC(O)(C1=NC(C)(C)CO1)c1ccncc1Br (configuration not stated)
inactive: dose: 100.0 mg/kg/injection, schedule: Q01DX001 (ip), vehicle: Klucel (hydroxypropylcellulose) (HPC) 100 % of control | dose: 200.0 mg/kg/injection, schedule: Q01DX001 (ip), vehicle: Klucel (hydroxypropylcellulose) (HPC) 94 % of control | dose: 400.0 mg/kg/injection, schedule: Q01DX001 (ip), vehicle: Klucel (hydroxypropylcellulose) (HPC) 97 % of control

Cn1cnc2nc(Cl)[nH]c(=O)c21
inactive: [4] 100 % of control | [5] 97 % of control | [6] 95 % of control

Cn1cnc2[nH]c(Cl)nc(=S)c21
inactive: [7] 95 % of control | [8] 92 % of control | dose: 400.0 mg/kg/injection, schedule: Q01DX001 (ip), vehicle: saline 95 % of control

CCCCNc1c(C2=NCCN2)cnc2c1cnn2CC
inactive: dose: 25.0 mg/kg/injection, schedule: Q04DX003 (ip), vehicle: Klucel (hydroxypropylcellulose) (HPC) 92 % of control | [9] 99 % of control | [4] 90 % of control and 92 % of control

CC(=O)OC1CCC2(C)C3CCC4(C)C(OC(=O)c5ccccc5)CCC4C3C3C(=O)OC32C1 (configuration not stated)
inactive: [4] 95 % of control | [5] 95 % of control | [6] 95 % of control

COc1cc2c(cc1OC)C1CCN3C(=O)CCC3N1CC2 (configuration not stated)
inactive: [10] 101 % of control | [11] 101 % of control | [12] 95 % of control | [13] 104 % of control | dose: 200.0 mg/kg/injection, schedule: Q01DX009 (ip), vehicle: saline with Tween-80 98 % of control | dose: 400.0 mg/kg/injection, schedule: Q01DX009 (ip), vehicle: saline with Tween-80 98 % of control

O=C1NC(=S)S/C1=C\c1ccc(F)cc1
inactive: [14] 117 % of control | [15] 98 % of control | [16] 103 % of control

CCCNc1nc(N)[nH]c(=O)c1NC=O
inactive: dose: 55.0 mg/kg/injection, schedule: Q01DX Z (ip), vehicle: methylcellulose (MC) 105 % of control | dose: 83.0 mg/kg/injection, schedule: Q01DX Z (ip), vehicle: methylcellulose (MC) 109 % of control | dose: 125.0 mg/kg/injection, schedule: Q01DX Z (ip), vehicle: methylcellulose (MC) 109 % of control | dose: 180.0 mg/kg/injection, schedule: Q01DX Z (ip), vehicle: methylcellulose (MC) 97 % of control

CCOC(=O)c1ccc(N=NNc2ccc(C(=O)OCC)cc2)cc1
inactive: dose: 10.0 mg/kg/injection, schedule: Q01DX Z (ip), vehicle: other 95 % of control | dose: 30.0 mg/kg/injection, schedule: Q01DX Z (ip), vehicle: other 87 % of control

CC(C)=CC(=O)NC(=O)NS(=O)(=O)c1ccc(Cl)cc1
inactive: [10] 100 % of control | [11] 107 % of control | [4] 105 % of control | [13] 98 % of control | [5] 102 % of control | [6] 106 % of control

OC12CCCCC1C[n+]1ccccc1C2 (configuration not stated)
inactive: [7] 101 % of control

CCO/C=C/C(=O)NC(=O)NC1CC(O)C(CO)C1 (configuration not stated)
inactive: dose: 50.0 mg/kg/injection, schedule: Q01DX009 (ip), vehicle: saline 104 % of control | dose: 100.0 mg/kg/injection, schedule: Q01DX009 (ip), vehicle: saline 107 % of control | dose: 200.0 mg/kg/injection, schedule: Q01DX009 (ip), vehicle: saline 93 % of control

COc1ccc2c(c1)CC/C(=C\c1ccc(OCCN3CCCC3)cc1)C2=O
inactive: [14] 105 % of control | [15] 107 % of control | [16] 100 % of control | [17] 111 % of control

N#C/C(=N\N=Nc1ccccc1)c1ccccc1
inactive: dose: 1.5 mg/kg/injection, schedule: Q01DX009 (ip), vehicle: DMSO 90 % of control | dose: 6.0 mg/kg/injection, schedule: Q01DX009 (ip), vehicle: DMSO 92 % of control | dose: 12.5 mg/kg/injection, schedule: Q01DX009 (ip), vehicle: DMSO 98 % of control | dose: 12.5 mg/kg/injection, schedule: Q04DX003 (ip), vehicle: DMSO 98 % of control | dose: 25.0 mg/kg/injection, schedule: Q04DX003 (ip), vehicle: DMSO 98 % of control | dose: 50.0 mg/kg/injection, schedule: Q04DX003 (ip), vehicle: DMSO 102 % of control

COc1n[n+]([O-])c(Cl)c(/C=C\c2ccccc2)c1[N+](=O)[O-]
inactive: dose: 75.0 mg/kg/injection, schedule: Q04DX002 (ip), vehicle: Klucel (hydroxypropylcellulose) (HPC) 93 % of control | dose: 150.0 mg/kg/injection, schedule: Q04DX002 (ip), vehicle: Klucel (hydroxypropylcellulose) (HPC) 101 % of control | dose: 300.0 mg/kg/injection, schedule: Q04DX002 (ip), vehicle: Klucel (hydroxypropylcellulose) (HPC) 101 % of control

O=[N+]([O-])/C=C/c1ccc(F)cc1
inactive: dose: 75.0 mg/kg/injection, schedule: Q01DX001 (ip), vehicle: alcohol 100 % of control

CCOC(=O)c1ccc(NC(=O)Oc2cc(C)ccc2C)cc1
inactive: [11] 93 % of control | [13] 92 % of control | [18] 90 % of control

c1ccc(-n2nc3c(c2-c2ccc(OCCN4CCCC4)cc2)CCCc2ccccc2-3)cc1
inactive: [17] 88 % of control

O=C1C=CC2C3C=CC(CC3)C12 (configuration not stated)
inactive: dose: 50.0 mg/kg/injection, schedule: Q04DX002 (ip), vehicle: Klucel (hydroxypropylcellulose) (HPC) 89 % of control | [19] 93 % of control

CCN(CC)CCOc1cc(C)ccc1C(C)C
inactive: dose: 25.0 mg/kg/injection, schedule: Q01DX009 (ip), vehicle: saline with Tween-80 93 % of control | [10] 102 % of control | dose: 50.0 mg/kg/injection, schedule: Q01DX009 (ip), vehicle: saline with Tween-80 93 % of control | [9] 100 % of control | [16] 100 % of control | [7] 98 % of control | [11] 103 % of control | [12] 113 % of control | [4] 96 % of control | [17] 95 % of control | [8] 113 % of control

N#CCCNC=O
inactive: dose: 100.0 mg/kg/injection, schedule: Q04DX002 (ip), vehicle: saline 109 % of control | dose: 200.0 mg/kg/injection, schedule: Q04DX002 (ip), vehicle: saline 98 % of control | dose: 400.0 mg/kg/injection, schedule: Q04DX002 (ip), vehicle: saline 109 % of control

CC1=NCCN=C(C)C1
inactive: [1] 96 % of control | [2] 98 % of control | [3] 112 % of control

Cc1ccc(CNC(=O)Nc2cccc(Cl)c2)cc1C
inactive: [11] 97 % of control | [13] 92 % of control | [18] 103 % of control

CCCC(=O)/C=C/c1ccc(C)cc1
inactive: [1] 96 % of control | [2] 112 % of control | [3] 96 % of control

O=C(N/N=C/c1cccc2ccccc12)c1ccc(O)cc1
inactive: [19] 100 % of control | dose: 200.0 mg/kg/injection, schedule: Q04DX002 (ip), vehicle: Klucel (hydroxypropylcellulose) (HPC) 100 % of control | dose: 400.0 mg/kg/injection, schedule: Q04DX002 (ip), vehicle: Klucel (hydroxypropylcellulose) (HPC) 103 % of control
